The values below are quoted from earlier work in patent publication US8637495B2, “Osteoarthritis diet formulations” (Nestec S.A., priority 2004, dated 2014).

The structures appear in SMILES notation.

The conditions of data set [1]: orally administered.
In data set [2] the test system is human patients with OA of the knee.

As to `N[C@H]1C(O)O[C@H](CO)[C@@H](O)[C@@H]1O` (some centres unmarked) [glucosamine, Glucosamine], in data set [1], the “radiolabel detected in exhaled CO2” value is listed as 70% and the retained in tissue result was “approximately 10%”. In data set [1] (physiologic pH of the small intestine), the fraction non-ionized entry is “More than 50%”. The “clinical signs of OA” value in data set [2] (1500 mg glucosamine per day, human, OA of the knee) was “significant improvement”. Further, in data set [2] (oral, two studies, patients followed for three years), the “long-term progression of OA” value is listed as “efficiently inhibited”.
